Reference: ChEMBL document CHEMBL3272271, “Folate antagonists. 13. 2,4-Diamino-6-](alpha,alpha,alpha-trifluoro-m-tolyl)thio]quinazoline and related 2,4-diamino-6-[(phenyl- and naphthyl)thio]quinazolines, a unique class of antimetabolites with extraordinary antimalarial and antibacterial effects” (J Med Chem, 1978)
In brackets after ≈: the same amount, converted by molar mass. Activity calls are given as the source filed them. No cut-off for these calls is given here.

What was measured:
Enterococcus faecalis = experiment: Antibacterial activity against Streptococcus faecalis MGH-2 by gradient plate test; type: functional
Staphylococcus aureus [1] = experiment: Antibacterial activity against Staphylococcus aureus UC-96 by gradient plate test; type: functional
Staphylococcus aureus [2] = experiment: Antibacterial activity against drug-resistant Staphylococcus aureus S18713 by gradient plate test; type: functional
Pseudomonas aeruginosa = experiment: Antibacterial activity against Pseudomonas aeruginosa 28 by gradient plate test; type: functional
Escherichia coli = experiment: Antibacterial activity against Escherichia coli Vogel by gradient plate test; type: functional
Shigella sonnei = experiment: Antibacterial activity against Shigella sonnei C-10 by gradient plate test; type: functional
[3] = system: Mycobacterium tuberculosis; experiment: Antibacterial activity against Mycobacterium tuberculosis H37Ra by gradient plate test; type: functional
Plasmodium gallinaceum [4] = experiment: Antimalarial activity against sporozoite-induced Plasmodium gallinaceum infected in white leghorn chicken assessed as disease cure from parasite infection at 480 mg/kg, sc administered 72 hrs after infection; type: functional, organism-based; design: dose 480 mg/kg
Gallus gallus [5] = experiment: Toxicity in sporozoite-induced Plasmodium gallinaceum infected white leghorn chicken assessed as mortality at 480 mg/kg, sc administered 72 hrs after infection measured up to 6 days; type: organism-based; design: dose 480 mg/kg, route subcutaneous; settings: in vivo
Plasmodium gallinaceum [6] = experiment: Antimalarial activity against sporozoite-induced Plasmodium gallinaceum infected in white leghorn chicken assessed as disease cure from parasite infection at 240 mg/kg, sc administered 72 hrs after infection; type: functional, organism-based; design: dose 240 mg/kg
Gallus gallus [7] = experiment: Toxicity in sporozoite-induced Plasmodium gallinaceum infected white leghorn chicken assessed as mortality at 240 mg/kg, sc administered 72 hrs after infection measured up to 6 days; type: organism-based; design: dose 240 mg/kg, route subcutaneous; settings: in vivo
Plasmodium gallinaceum [8] = experiment: Antimalarial activity against sporozoite-induced Plasmodium gallinaceum infected in white leghorn chicken assessed as disease cure from parasite infection at 120 mg/kg, sc administered 72 hrs after infection; type: functional, organism-based; design: dose 120 mg/kg
Gallus gallus [9] = experiment: Toxicity in sporozoite-induced Plasmodium gallinaceum infected white leghorn chicken assessed as mortality at 120 mg/kg, sc administered 72 hrs after infection measured up to 6 days; type: organism-based; design: dose 120 mg/kg, route subcutaneous; settings: in vivo
Plasmodium gallinaceum [10] = experiment: Antimalarial activity against sporozoite-induced Plasmodium gallinaceum infected in white leghorn chicken assessed as disease cure from parasite infection at 60 mg/kg, sc administered 72 hrs after infection; type: functional, organism-based; design: dose 60 mg/kg
Gallus gallus [11] = experiment: Toxicity in sporozoite-induced Plasmodium gallinaceum infected white leghorn chicken assessed as mortality at 60 mg/kg, sc administered 72 hrs after infection measured up to 6 days; type: organism-based; design: dose 60 mg/kg, route subcutaneous; settings: in vivo
Plasmodium gallinaceum [12] = experiment: Antimalarial activity against sporozoite-induced Plasmodium gallinaceum infected in white leghorn chicken assessed as disease cure from parasite infection at 30 mg/kg, sc administered 72 hrs after infection; type: functional, organism-based; design: dose 30 mg/kg
Gallus gallus [13] = experiment: Toxicity in sporozoite-induced Plasmodium gallinaceum infected white leghorn chicken assessed as mortality at 30 mg/kg, sc administered 72 hrs after infection measured up to 6 days; type: organism-based; design: dose 30 mg/kg, route subcutaneous; settings: in vivo
Plasmodium gallinaceum [14] = experiment: Antimalarial activity against sporozoite-induced Plasmodium gallinaceum infected in white leghorn chicken assessed as disease cure from parasite infection at 15 mg/kg, sc administered 72 hrs after infection; type: functional, organism-based; design: dose 15 mg/kg
Gallus gallus [15] = experiment: Toxicity in sporozoite-induced Plasmodium gallinaceum infected white leghorn chicken assessed as mortality at 15 mg/kg, sc administered 72 hrs after infection measured up to 6 days; type: organism-based; design: dose 15 mg/kg, route subcutaneous; settings: in vivo
Plasmodium berghei [16] = experiment: Antimalarial activity against Plasmodium berghei infected in mouse assessed as increase in mean survival days of host at 80 mg/kg, sc administered 72 hrs after infection relative to control; type: functional; settings: route subcutaneous
Plasmodium berghei [17] = experiment: Antimalarial activity against Plasmodium berghei infected in mouse assessed as increase in mean survival days of host at 40 mg/kg, sc administered 72 hrs after infection relative to control; type: functional; settings: route subcutaneous
Plasmodium berghei [18] = experiment: Antimalarial activity against Plasmodium berghei infected in mouse assessed as increase in mean survival days of host at 20 mg/kg, sc administered 72 hrs after infection relative to control; type: functional; settings: route subcutaneous
Plasmodium berghei [19] = experiment: Antimalarial activity against Plasmodium berghei infected in mouse assessed as increase in mean survival days of host at 10 mg/kg, sc administered 72 hrs after infection relative to control; type: functional; settings: route subcutaneous
Plasmodium berghei [20] = experiment: Antimalarial activity against Plasmodium berghei infected in mouse assessed as disease cure from parasite infection at 640 mg/kg, sc administered 72 hrs after infection; type: functional, organism-based; design: dose 640 mg/kg
Plasmodium berghei [21] = experiment: Antimalarial activity against Plasmodium berghei infected in mouse assessed as disease cure from parasite infection at 320 mg/kg, sc administered 72 hrs after infection; type: functional, organism-based; design: dose 320 mg/kg
Plasmodium berghei [22] = experiment: Antimalarial activity against Plasmodium berghei infected in mouse assessed as disease cure from parasite infection at 160 mg/kg, sc administered 72 hrs after infection; type: functional, organism-based; design: dose 160 mg/kg
Plasmodium berghei [23] = experiment: Antimalarial activity against Plasmodium berghei infected in mouse assessed as disease cure from parasite infection at 80 mg/kg, sc administered 72 hrs after infection; type: functional, organism-based; design: dose 80 mg/kg
Plasmodium gallinaceum [24] = experiment: Antimalarial activity against sporozoite-induced Plasmodium gallinaceum infected in white leghorn chicken assessed as increase in mean survival days of host at 240 mg/kg, sc administered 72 hrs after infection relative to control; type: functional; settings: route subcutaneous
Plasmodium gallinaceum [25] = experiment: Antimalarial activity against sporozoite-induced Plasmodium gallinaceum infected in white leghorn chicken assessed as increase in mean survival days of host at 120 mg/kg, sc administered 72 hrs after infection relative to control; type: functional; settings: route subcutaneous
Plasmodium gallinaceum [26] = experiment: Antimalarial activity against sporozoite-induced Plasmodium gallinaceum infected in white leghorn chicken assessed as increase in mean survival days of host at 60 mg/kg, sc administered 72 hrs after infection relative to control; type: functional; settings: route subcutaneous
Plasmodium gallinaceum [27] = experiment: Antimalarial activity against sporozoite-induced Plasmodium gallinaceum infected in white leghorn chicken assessed as increase in mean survival days of host at 30 mg/kg, sc administered 72 hrs after infection relative to control; type: functional; settings: route subcutaneous
Plasmodium gallinaceum [28] = experiment: Antimalarial activity against sporozoite-induced Plasmodium gallinaceum infected in white leghorn chicken assessed as increase in mean survival days of host at 15 mg/kg, sc administered 72 hrs after infection relative to control; type: functional; settings: route subcutaneous
Plasmodium gallinaceum [29] = experiment: Antimalarial activity against sporozoite-induced Plasmodium gallinaceum infected in white leghorn chicken assessed as increase in mean survival days of host at 7.5 mg/kg, sc administered 72 hrs after infection relative to control; type: functional; settings: route subcutaneous
Plasmodium berghei [30] = experiment: Antimalarial activity against Plasmodium berghei infected in mouse assessed as increase in mean survival days of host at 160 mg/kg, sc administered 72 hrs after infection relative to control; type: functional; settings: route subcutaneous
Plasmodium berghei [31] = experiment: Antimalarial activity against trophozoite-induced Plasmodium berghei infected in mouse assessed as daily dose required to suppression of 90% parasite infection administered with diet for 6 days; type: functional
Plasmodium berghei [32] = experiment: Ratio of quinine hydrochloride SD90 to compound SD90 for trophozoite-induced Plasmodium berghei infected in mouse assessed as daily dose required to suppression of 90% parasite infection administered with diet for 6 days; type: functional

Cc1cc(Sc2ccc3nc(N)nc(N)c3c2)ccc1Br
MIC (Enterococcus faecalis): 10 µg/mL (≈ 27.7 µM)
MIC (Staphylococcus aureus [1]): 5 µg/mL (≈ 13.8 µM)
MIC (Staphylococcus aureus [2]): 10 µg/mL (≈ 27.7 µM)
MIC (Pseudomonas aeruginosa): > 25 µg/mL
MIC (Escherichia coli): 20 µg/mL (≈ 55.4 µM)
MIC (Shigella sonnei): 20 µg/mL (≈ 55.4 µM)
MIC [3]: > 25 µg/mL
Activity (Plasmodium gallinaceum [4]): Active
Activity (Gallus gallus [5]): Toxic
Activity (Plasmodium gallinaceum [6]): Active
Activity (Gallus gallus [7]): Toxic
Activity (Plasmodium gallinaceum [8]): Active
Activity (Gallus gallus [9]): Toxic
Activity (Plasmodium gallinaceum [10]): Active
Activity (Gallus gallus [11]): Toxic
Activity (Plasmodium gallinaceum [12]): Active
Activity (Gallus gallus [13]): Toxic
Activity (Plasmodium gallinaceum [14]): Active
Activity (Gallus gallus [15]): Toxic
MST (Plasmodium berghei [16]): 11.9 days
MST (Plasmodium berghei [17]): 7.7 days
MST (Plasmodium berghei [18]): 3.5 days
MST (Plasmodium berghei [19]): 1.9 days
Activity (Plasmodium berghei [20]): Active
Activity (Plasmodium berghei [21]): Active
Activity (Plasmodium berghei [22]): Active
Activity (Plasmodium berghei [23]): Active

CC(=O)O.Nc1nc(N)c2cc(NCc3ccc(Cl)c(Cl)c3)ccc2n1
Activity (Gallus gallus [5]): Toxic
MST (Plasmodium gallinaceum [24]): 0 days
MST (Plasmodium gallinaceum [25]): 0 days
MST (Plasmodium gallinaceum [26]): 0 days
MST (Plasmodium gallinaceum [27]): 0 days
MST (Plasmodium gallinaceum [28]): 3.1 days
MST (Plasmodium gallinaceum [29]): 2.3 days
MST (Plasmodium berghei [30]): 9.9 days
MST (Plasmodium berghei [16]): 12.9 days
MST (Plasmodium berghei [17]): 7.1 days
MST (Plasmodium berghei [18]): 2.5 days
MST (Plasmodium berghei [19]): 0.7 days
SD90 (Plasmodium berghei [31]): 9.5 mg/kg/day
Ratio (Plasmodium berghei [32]): 7.9
